“Also recorded” adds a separate entry of the source.
Tests used:
Format in all cases: in vivo
[1] = test system: C57Bl/6 mice; assay: AGISHA model with AngII as injury inducer (ACR in urine); details: for ACR in urine collected for 4 hours after AngII bolus injections: vs NaCl control group; for ACR in urine collected for 4 hours after first AngII bolus injections, experimental day 1: vs NaCl group
Source text: Five groups with 10-12 mice per group (C57Bl/6, Charles River Laboratories, 6-7 weeks old) were set for one experiment. After delivery, animals remained in a temperature- and light-controlled room with standardized mouse chow and water ad libitum for a one week acclimatization period, following guidelines of local governmental institutions (LANUV Germany). The groups were divided as follows (see FIG. 1): • 1. Control group without AngII bolus injection, but with control saline and additional (oral) administration of drug vehicle (10% ethanol, 40% solutol, 50% water or saline). • 2. AngII group, treated with AngII in normal saline, and drug vehicle. AngII administration occurred in two bolus injections (i.v.+s.c.) of 10 μg (5 μg i.v.+5 μg s.c.), 16 μg (8 μg i.v.+8 μg s.c.) and 20 μg (10 μg i.v.+10 μg s.c.) per mouse, where the first bolus was injected intravenously and the second bolus subcutaneously. The drug vehicle was administered orally.
3. Candidate groups 3 and 4: AngII injection and additional treatment with the investigated drug/drugs. For substance testing, drugs or appropriated vehicles were administered orally, via i.v., s.c., or i.p. Administration occurred prior to or after AngII-injection. For example, investigated drug/drugs were given orally 30 minutes before the induction of the injury. • 4. Group 5 is the positive control group Animals were injected with AngII and treated orally with Losartan 30 mg/kg. Losartan is an AngII receptor blocker AT1 (Pieter B M et al, Pharma. Rev., 1993, Kang P M et al, Progress in Cardiology, 1994).
After AngII injection animals were placed in metabolic cages (Technoplast, Italy) for urine collection for up to 4 hours. At the end of the experiment the urine was analyzed to quantify the ACR. More specifically, the collected urine was analyzed using an automatic analyzer for urinary albumin as well as urinary creatinine (Coban® Integra 400, Roche, Basel, SUI) or using the Mouse albumin ELISA kit (ABCAM, Cambridge, UK). […] The AGISHA model was performed in 3 identical cycles with a one-week break for recovery.
Negative and positive control experiment. To confirm the findings shown in FIG. 2-4, the mode of action in AGISHA was investigated. In the following experiment, three of the animal groups were pre-treated with three different drugs by oral application 30 minutes before administration of injury inducer (see FIG. 5). • 1) Enalapril 10 mg/kg, an angiotensin-converting enzyme (ACE) inhibitor, is standard of care for high blood pressure. It was used as positive modulator control 1 of the renin-angiotensin system (RAS) in the AGISHA model. • 2) Losartan potassium, 30 mg/kg, angiotensin II type I receptor (AT1) antagonist, standard of care for high blood pressure (Kang et al, 1994; Sica D A et al, Clin Parmacokinet., 2005) was used as positive modulator control 2 of the RAS system in the AGISHA model. • 3) Tivozanib, 3 mg/kg, vascular endothelial grow factor receptor tyrosine kinase inhibitor (Campas C et al, Drugs Fut., 2009) was used as negative modulator of the RAS system during AGISHA model. […]
The experiment was performed as described in example 5, except that the sGC stimulator 5-cyclopropyl-2-[1-(2-fluorobenzyl)-1H-pyrazolo[3,4-b]pyridin-3-yl]pyrimidin-4-amine was used for treatment. […] Losartan (30 mg/kg) was used as positive control.

[2] = test system: mice; assay: GFR-based model with AngII and Sinestrin-FITC (GFR acute modulation); details: for GFR 2 hrs after AngII bolus injection: vs control group
Source text: Acute GFR modulation is a relevant phenomenon in the field of nephrology (Fergusan and […], Clin. Chem., 58(4), 2012, p. 680-689). GFR is the major readout parameter for chronic kidney disease (CKD) stage assessment (Lopez-Giacoman and Madero, World J Nephrol. 4(1), 2015, 57-73). The GFR is also a very stable and robust physiological parameter that is subject to positive and negative feedback regulation. The following protocol and experimental setup (FIG. 21) was established to model acute GFR modulation. 1. Control group without AngII bolus injection, but with control saline (0.9%)+[…] 150 mg/kg and additional s c administration of 0.9% NaCl (100 μl+100 μl) 2. AngII group, treated with AngII in two bolus injections: First bolus of 20 μg/mouse of AngII in normal saline administered in combination with […] 150 mg/kg, 50 μl+50 μl, injected via tail vein. Second bolus injected s.c. comprising 20 μg AngII, 100 μl. 3. Losartan group was treated orally with 30 mg/kg of Losartan Potassium, 30 min prior to the AngII injury. AngII injury occurred in two bolus injections as described for the AngII group (total 40 μg). 1. Control group without AngII bolus injection, but with control saline (0.9%)+[…] 150 mg/kg and additional s.c. administration of 0.9% NaCl (100 μl+100 μl) 2. AngII group, treated with AngII in two bolus injections: First bolus of 20 μg/mouse of AngII in normal saline administered in combination with […] 150 mg/kg, 50 μl+50 μl, injected via tail vein. Second bolus injected s.c. comprising 30 μg AngII, 100 μl. 3. Losartan group was treated orally with 30 mg/kg of Losartan Potassium, 30 min prior to the AngII injury. AngII injury occurred in two bolus injections as described for the AngII group (total 50 μg). For substance testing, animals were pre-treated with the respective drugs or vehicles 30 min before AngII-injection, via oral gavage, s.c, i.p., or tail vein injection. Subsequently, […] mix bolus was administered to the animals with the tracer (FIG. 21).

[3] = test system: mice; assay: GFR-based model with AVP and Sinestrin-FITC; details: pre-treatment with Losartan 30 mg/kg; AVP 35 μg
Procedure: A similar setup (FIG. 23) was used with AVP (Sigma-Aldrich, Mo.) at a dose of 35 μg, i.e. using a first bolus with 15 μg AVP, injected i.v. in combination with Sinestrin-FITC 150 mg/kg (50 ul+50 ul) and using a second bolus of 20 μg AVP, 100 uL, injected i.v. As before GFR, was decreased by AVP compared with the control group.

[4] = test system: C57Bl/6/J male mice; assay: GFBI test model with AngII (transcutaneous fluorescence of Ficoll-FITC); details: for Half-life of the fluorescent molecule in the blood 2 h after AngII bolus injection: vs control
Procedure: After delivery, C57Bl/6/J male mice remained in a temperature- and light-controlled room with standardized mouse chow and water ad libitum for a one week acclimatization period, following guidelines of local governmental institutions (LANUV Germany). C57Bl/6/J mice (6-7 weeks) received an intravenous mixture of FITC-FICOLL 70 kDa (Sigma) and 10 μg AngII mix 100 μL, followed by a 10 μg (100 μL) subcutaneous AngII bolus as described in example 1. The groups were divided as follows, see FIG. 17:
1. Control group without AngII bolus injection, but with control saline 0.9%+Ficoll-FITC 150 mg/kg and additional s c administration of a bolus of NaCl 0.9%.
2. AngII group, treated with AngII in two bolus injections (10 μg/mouse of AngII+Ficoll-FITC, 150 mg/kg, both dissolved in 0.9% NaCl, first bolus injected i.v. via tail vein (5 μg AngII) and a second subcutaneous bolus injection (5 μg AngII).
3. AngII group, treated with AngII in two bolus injections (20 μg/mouse total AngII+Ficoll-FITC, 150 mg/kg 150 mg/kg, both dissolved in 0.9% NaCl, first bolus injected i.v. via tail vein (10 μg AngII) and a second subcutaneous bolus injection (10 μg AngII).
TF of the FICOLL-FITC was detected via the transcutaneous method developed by MediBeacon Inc. (MediBeacon Inc., Mo., USA). In brief: all experimental animals were shaved with standard mask anesthesia 1 h before the determination of TF for the FICOLL-FITC Immediately after the injury induction the portable transcutaneous measurement device was placed on the left dorsal back side of the animal for 2 hours. The results were analyzed with the MediBeacon Inc. software. […] The decay of the Ficoll-FITC dye was visualized as a flat line, with a half-life of ca. 396 minutes.

[5] = oral 30 minutes before AngII 10 μg i.v.+10 μg s.c., Enalapril 10 mg/kg, Losartan potassium 30 mg/kg, Tivozanib 3 mg/kg, FIG. 6
[6] = pre-treatment orally, AngII 10 μg i.v.+10 μg s.c., OGT 2115 40 mg/kg, Losartan Potassium 30 mg/kg, FIG. 10

COc1cc2nccc(Oc3ccc(NC(=O)Nc4cc(C)on4)c(Cl)c3)c2cc1OC [Tivozanib]
Effect on ACR induced by AngII [1, 5]: no effect on ACR induced by AngII

CCOC(=O)[C@H](CCc1ccccc1)N[C@@H](C)C(=O)N1CCC[C@H]1C(=O)O [Enalapril]
Effect on ACR induced by AngII [1, 5]: significantly reduced

CCCCc1nc(Cl)c(CO)n1Cc1ccc(-c2ccccc2-c2nn[nH]n2)cc1 [Losartan]
Effect on AngII induced loss of GFR ([2]; Losartan Potassium 30 mg/kg orally 30 min prior to AngII total 40 μg): AngII bolus had no effect on the GFR; also recorded: able to completely reverse the effect | Effect on AngII induced loss of GFR ([2]; Losartan Potassium 30 mg/kg orally 30 min prior to AngII total 50 μg): restored the GFR; also recorded: significant recovery of AngII induced loss of GFR | Reduction of AngII induced ACR ([1]; Losartan 30 mg/kg orally, positive control, AngII 10 μg i.v.+10 μg s.c.): around 90% | Effect on AngII-induced ACR induction ([1]; Losartan 30 mg/kg orally, FIG. 2 experiment): AngII bolus had no effect on ACR; also recorded: prevents AngII-induced ACR induction | Effect on ACR induced by AngII [1, 5]: highly significant reduction of AngII induced injury | Effect on ACR induced by AngII ([1]; oral 30 minutes before AngII 10 μg i.v.+10 μg s.c., Enalapril 10 mg/kg, Losartan potassium 30 mg/kg, Tivozanib 3 mg/kg, FIG. 6, listed as Losartan potassium): strongest effect | Effect on ACR induced by AngII [1, 6]: highly significant reduction of AngII induced injury | Effect on AVP induced loss of GFR [3]: did not restore the normal GFR; also recorded: did not restore or prevent the AVP induced loss of GFR

Asp-Arg-Val-Tyr-Ile-His-Pro-Phe (DRVYIHPF; printed: Asp-Arg-Val-Tyr-Ile-His-Pro-Phe) [AngII, human angiotensin II peptide hormone, used as renal injury inducer]
GFR 2 hrs after AngII bolus injection ([2]; total 40 μg AngII (20 μg i.v.+20 μg s.c.)): decreased but not significantly decreased; also recorded: decrease in GFR | GFR 2 hrs after AngII bolus injection ([2]; total 50 μg AngII (20 μg i.v.+30 μg s.c.)): highly significant reduction of the GFR; also recorded: significantly reduced | ACR in urine collected for 4 hours after AngII bolus injections ([1]; AngII 8 μg i.v.+8 μg s.c.): significant induction of ACR | ACR in urine collected for 4 hours after AngII bolus injections ([1]; AngII 10 μg i.v.+10 μg s.c.): significant induction of ACR; also recorded: significant increase of ACR | ACR on third experimental day after changed order of stimuli ([1]; cross AGISHA, AngII 5 μg dose (group 1) and 10 μg dose (group 2)): dose dependent increase of injury | ACR in urine collected for 4 hours after first AngII bolus injections, experimental day 1 ([1]; cross AGISHA, AngII 5 μg i.v.+5 μg s.c.): significantly increased | ACR in urine collected for 4 hours after first AngII bolus injections, experimental day 1 ([1]; cross AGISHA, AngII 10 μg i.v.+10 μg s.c.): significantly increased | ACR on day 2, 24 hours after first induction of acute glomerular injury ([1]; cross AGISHA, after AngII 5 μg or 10 μg dose): For none of the groups the analysis shows a detectable ACR | Half-life of the fluorescent molecule in the blood 2 h after AngII bolus injection ([4]; AngII 10 μg): decrease in half-life of the fluorescent molecule was significant | Half-life of the fluorescent molecule in the blood 2 h after AngII bolus injection ([4]; AngII 20 μg): decrease in half-life of the fluorescent molecule was significant | Half-life of FICOLL-FITC transcutaneous fluorescence, representative curve ([4]; animals treated with AngII, control (0.9% NaCl) ca. 396 minutes): ca. 180 min

O=C(O)Cc1ccc2oc(-c3ccc(NC(=O)/C=C/c4ccc(Br)cc4)c(F)c3)nc2c1 [OGT2115]
Effect on ACR induced by AngII [1, 6]: significantly reduced

O=C(O)CCCCN(CCc1cc(F)ccc1OCc1ccc(-c2ccc(C(F)(F)F)cc2)cc1)Cc1ccc(C(=O)O)cc1 [4-({(4-carboxybutyl)[2-(5-fluoro-2-{[4′-(trifluoromethyl)biphenyl-4-yl]methoxy}phenyl)ethyl]amino}methyl)benzoic acid]
Reduction of ACR compared with the control group ([1]; 3 mg/kg orally prior to AngII 10 μg i.v.+10 μg s.c.): 71% | AngII induced ACR, mean±SD ([1]; 3 mg/kg orally prior to AngII 10 μg i.v.+10 μg s.c., urine 4 hours): 35 ± 26 µg/mg

Source: patent US11439713B2, “Method for creating a renal injury model to screen molecules for the treatment of renal injury” (BAYER AKTIENGESELLSCHAFT, priority 2017, dated 2022)
